Reference: PMC11152041, “Tricarbonyl rhenium(I) complexes with 8-hydroxyquinolines: structural, chemical, antibacterial, and anticancer characteristics” (RSC Advances, 2024)
Values after ≈ are worked out from the molar mass of the structure shown. Where two headings read alike, the source gives them in different places.

Key:
E. coli ATCC25922 = assay: Broth microdilution MIC/MBC (ISO 20776-1); assay type: cell-based, Escherichia coli
Method: (§1) Bacterial strains and cell lines were obtained from the American Type Culture Collection (ATCC).[59] […] Antimicrobial activity was tested in Müeller Hinton (MH) II broth (Becton Dickinson). For anticancer activity assay, the following reagents from Merk were used: 3-(4,5-dimethylthiazol-2-yl)-2,5-diphenyltetrazolium bromide (MTT), sodium dodecyl sulfate (SDS) and HCl. The solubilized formazan product was spectrophotometrically quantified in a Power Wave XS (Bio Tek, Winooski, VT, USA) microplate reader. The HL-60 and PC-3 cells were grown in RPMI-1640 medium with stable glutamine (Biowest) supplemented with 10% (v/v) of heat-inactivated fetal bovine serum (FBS, Biowest) and 1% (v/v) of antibiotic–antimycotic solution (Biowest). The SKOV-3 cells were grown in McCoy's 5A medium with L-glutamine (Biowest) supplemented with 10% (v/v) heat-inactivated FBS, and 1% (v/v) antibiotic–antimycotic solution. The MCF-7 cells were grown in Eagle's MEM (Minimal Essential Medium) medium with stable glutamine (Biowest), supplemented with 10% (v/v) heat-inactivated FBS 1% (v/v) MEM non-essential amino acids (Biowest), 1% (v/v) antibiotic–antimycotic solution, and 1 mM sodium pyruvate (Merck). The MCF-10A cells were grown in Ham's F-12K (Kaighn's) Medium with stable glutamine (Gibco) supplemented with 5% (v/v) heat-inactivated FBS, 1% (v/v) MEM non-essential amino acids, 1% (v/v) antibiotic–antimycotic solution, 5 μg mL^−1 insulin, 0.04 μg mL^−1 hydrocortisone (Merck), and 15 ng mL^−1 human Epidermal Growth Factor (hEGF, PeproTech).
(§2) The in vitro antibacterial activity was determined according to ISO 20776-1.[88] Among the tested microorganisms were Gram-negative rods, E. coli ATCC25922 and P. aeruginosa ATCC27853, and Gram-positive cocci, S. aureus ATCC29213 and E. faecalis ATCC29212. The selected bacterial species represented the most common etiologic agents of human infections and are used for quality control of antimicrobial susceptibility testing.[89] The test procedure included the determination of MICs and MBCs of complexes and their free ligands. MIC and MBC determinations of ciprofloxacin, as the reference antibiotic, were also performed. All compounds were dissolved in DMSO to reach the maximum 512 mg L^−1 concentration. […] The assay consisted of preparing 2-fold dilutions of the substances in a liquid growth medium MH II and inoculating them with a standardized suspension of microorganisms at a McFarland density of 0.5 (≈10^8 CFU mL^−1). The culture plates were incubated at 35 °C for 24 h. The lowest concentration of the compound inhibiting visible bacterial growth was specified as MIC, and the concentration that reduced bacterial growth by >99.99% after counting live bacteria on the plates compared to the positive control was defined as MBC.

S. aureus ATCC29213 = assay: Broth microdilution MIC/MBC (ISO 20776-1); assay type: cell-based, Staphylococcus aureus
Method: as §1, §2

P. aeruginosa ATCC27853 = assay: Broth microdilution MIC/MBC (ISO 20776-1); assay type: cell-based, Pseudomonas aeruginosa
Method: as §1, §2

E. faecalis ATCC29212 = assay: Broth microdilution MIC/MBC (ISO 20776-1); assay type: cell-based, Enterococcus faecalis
Method: as §1, §2

MCF-10A cells = assay: MTT cytotoxicity assay; conditions: for IC50: read-out: IC50 ± SD
Method: (§3) The cytotoxicities for studied compounds were evaluated against leukemia cells (HL-60), as well as ovarian (SKOV-3), prostate (PC-3), and breast (MCF-7) cancer cell lines. The potential selectivity of these compounds towards cancer cells was assessed by determination of their cytotoxicities towards breast non-cancerous cells (MCF-10A). For comparison, cisplatin was added to the cytotoxicity assays.
as §1
(§4) The cells were cultured in 96-well plates and incubated with the tested compound for 24 h and 48 h. All experiments were performed in exponentially growing cultures. The 0.03 M solutions of the compounds in DMSO were appropriately diluted using culture media. The maximal final concentration of DMSO in each well was 0.1%. The cytotoxicity of the compounds was measured by determining cell viability with a colorimetric test based on 3-(4,5-dimethylthiazol-2-yl)-2,5-diphenyltetrazolium bromide (MTT). MTT stock solution was added to each well to a final concentration of 0.5 mg mL^−1 and incubated for 4 h at 37 °C; following formazan crystals were dissolved by the addition of sodium dodecyl sulfate (SDS) solution (10% SDS in 0.001 M HCl). MTT and SDS were added directly to the cell culture. The compound's IC50 values (concentration required to reduce the viability of cells by 50% compared with the control cells) were calculated from the data obtained with the MTT assay.

HL-60 cells = assay: MTT cytotoxicity assay; assay type: cell-based, human
Method: as §3, §1, §4

PC-3 cells = assay: MTT cytotoxicity assay; assay type: cell-based, human; conditions: read-out: IC50 ± SD
Method: as §3, §1, §4

SKOV-3 cells = assay: MTT cytotoxicity assay; assay type: cell-based, human; conditions: for IC50: read-out: IC50 ± SD
Method: as §3, §1, §4

MCF-7 cells = assay: MTT cytotoxicity assay; assay type: cell-based, human; conditions: for IC50: read-out: IC50 ± SD; for selectivity: IC50 for normal cells times higher than for breast cancer cells: MCF-10A versus MCF-7
Method: as §3, §1, §4

[1] = Escherichia coli, E. coli ATCC25922, >99.99% reduction of growth, read-out: MBC
[2] = Escherichia coli, E. coli ATCC25922, MH II broth, 35 °C, 24 h, read-out: MIC
[3] = Staphylococcus aureus, S. aureus ATCC29213, >99.99% reduction of growth, read-out: MBC
[4] = Staphylococcus aureus, S. aureus ATCC29213, MH II broth, 35 °C, 24 h, read-out: MIC
[5] = Pseudomonas aeruginosa, P. aeruginosa ATCC27853, >99.99% reduction of growth, read-out: MBC
[6] = Pseudomonas aeruginosa, P. aeruginosa ATCC27853, MH II broth, 35 °C, 24 h, read-out: MIC
[7] = Enterococcus faecalis, E. faecalis ATCC29212, >99.99% reduction of growth, read-out: MBC
[8] = Enterococcus faecalis, E. faecalis ATCC29212, MH II broth, 35 °C, 24 h, read-out: MIC
[9] = MCF-10A (non-cancerous), 24 h, MTT, * precipitation of the complex
[10] = MCF-10A (non-cancerous), 48 h, MTT, * precipitation of the complex
[11] = HL-60, 24 h, MTT, read-out: IC50 ± SD

O=C(O)c1cn(C2CC2)c2cc(N3CCNCC3)c(F)cc2c1=O [CIP, ciprofloxacin, reference compound]
MBC (E. coli ATCC25922; [1]): 4 µg/mL (≈ 12.1 µM) | MIC (E. coli ATCC25922; [2]): < 0.5 µg/mL | MBC (S. aureus ATCC29213; [3]): 1 µg/mL (≈ 3.02 µM) | MIC (S. aureus ATCC29213; [4]): < 0.5 µg/mL | MBC (P. aeruginosa ATCC27853; [5]): 8 µg/mL (≈ 24.1 µM) | MIC (P. aeruginosa ATCC27853; [6]): 1 µg/mL (≈ 3.02 µM) | MBC (E. faecalis ATCC29212; [7]): 8 µg/mL (≈ 24.1 µM) | MIC (E. faecalis ATCC29212; [8]): 2 µg/mL (≈ 6.04 µM)

Oc1ccc(Cl)c2cccnc12 [ClHQ, 5-chloro-8-hydroxyquinoline, reference compound]
MBC (E. coli ATCC25922; [1]): > 512 µg/mL | MIC (E. coli ATCC25922; [2]): 16 µg/mL (≈ 89.1 µM) | MBC (S. aureus ATCC29213; [3]): 32 µg/mL (≈ 178 µM) | MIC (S. aureus ATCC29213; [4]): 8 µg/mL (≈ 44.5 µM) | IC50 (MCF-10A cells; Homo sapiens, MCF-10A, 24 h): > 100 µM | IC50 (MCF-10A cells; Homo sapiens, MCF-10A, 48 h): 70 ± 1 µM | MBC (P. aeruginosa ATCC27853; [5]): > 512 µg/mL | MIC (P. aeruginosa ATCC27853; [6]): 256 µg/mL (≈ 1430 µM) | MBC (E. faecalis ATCC29212; [7]): < 0.5 µg/mL | MIC (E. faecalis ATCC29212; [8]): < 0.5 µg/mL | IC50 (HL-60 cells; Homo sapiens, HL-60, 24 h, MTT, read-out: IC50 ± SD): 1.7 ± 0.1 µM | IC50 (HL-60 cells; Homo sapiens, HL-60, 48 h, MTT, read-out: IC50 ± SD): 1.6 ± 0.4 µM | IC50 (HL-60 cells; Homo sapiens, HL-60, incubation time not stated in the text (24 and 48 h), read-out: IC50): < 2 µM | IC50 (PC-3 cells; Homo sapiens, PC-3, 24 h, MTT): 25 ± 3 µM | IC50 (PC-3 cells; Homo sapiens, PC-3, 48 h, MTT): 39 ± 3 µM | IC50 (SKOV-3 cells; Homo sapiens, SK-OV-3, SKOV-3, 24 h, MTT): > 100 µM | IC50 (SKOV-3 cells; Homo sapiens, SK-OV-3, SKOV-3, 48 h, MTT): 42 ± 7 µM | IC50 (MCF-7 cells; Homo sapiens, MCF7, MCF-7, 24 h, MTT): 32 ± 8 µM | IC50 (MCF-7 cells; Homo sapiens, MCF7, MCF-7, 48 h, MTT): 13 ± 5 µM | selectivity: IC50 for normal cells times higher than for breast cancer cells (MCF-7 cells): at least 3 times

Oc1cccc2cccnc12 [HQ, 8-hydroxyquinoline]
MBC (E. coli ATCC25922; Escherichia coli, ATCC25922): > 512 µg/mL | MIC (E. coli ATCC25922; Escherichia coli, ATCC25922, 24 h): 32 µg/mL (≈ 220 µM) | MBC (S. aureus ATCC29213; Staphylococcus aureus, ATCC29213): 64 µg/mL (≈ 441 µM) | MIC (S. aureus ATCC29213; Staphylococcus aureus, ATCC29213, 24 h): 16 µg/mL (≈ 110 µM) | IC50 (MCF-10A cells; Homo sapiens, MCF-10A, 24 h): > 100 µM | IC50 (MCF-10A cells; Homo sapiens, MCF-10A, 48 h): > 100 µM | MBC (P. aeruginosa ATCC27853; Pseudomonas aeruginosa, ATCC27853): > 512 µg/mL | MIC (P. aeruginosa ATCC27853; Pseudomonas aeruginosa, ATCC27853, 24 h): 256 µg/mL (≈ 1760 µM) | MBC (E. faecalis ATCC29212; Enterococcus faecalis, ATCC29212): 32 µg/mL (≈ 220 µM) | MIC (E. faecalis ATCC29212; Enterococcus faecalis, ATCC29212, 24 h): 2 µg/mL (≈ 13.8 µM) | IC50 (HL-60 cells; Homo sapiens, HL-60, 24 h, read-out: IC50 ± SD): 2.2 ± 0.2 µM | IC50 (HL-60 cells; Homo sapiens, HL-60, 48 h, read-out: IC50 ± SD): 2 ± 0.2 µM | IC50 (PC-3 cells; Homo sapiens, PC-3, 24 h): 18 ± 2 µM | IC50 (PC-3 cells; Homo sapiens, PC-3, 48 h): 29 ± 3 µM | IC50 (SKOV-3 cells; Homo sapiens, SK-OV-3, 24 h): > 100 µM | IC50 (SKOV-3 cells; Homo sapiens, SK-OV-3, 48 h): 29 ± 5 µM | IC50 (MCF-7 cells; Homo sapiens, MCF7, 24 h): 24 ± 6 µM | IC50 (MCF-7 cells; Homo sapiens, MCF7, 48 h): 7 ± 2 µM | selectivity: IC50 for normal cells times higher than for breast cancer cells (MCF-7 cells): at least 3 times

N.N.[Cl][Pt][Cl] [cisplatin, reference compound]
IC50 / activity on normal cells (MCF-10A cells; MCF-10A, incubation time not given): no action | IC50 (MCF-10A cells; [9]): > 100 µM | IC50 (MCF-10A cells; [10]): > 100 µM | IC50 (HL-60 cells; [11]): 46 ± 1 µM | IC50 (PC-3 cells; PC-3, 24 h, MTT): 58 ± 6 µM | IC50 (PC-3 cells; PC-3, 48 h, MTT): 20 ± 2 µM | IC50 (SKOV-3 cells; SKOV-3, 24 h, MTT): > 100 µM | IC50 (SKOV-3 cells; SKOV-3, 48 h, MTT): > 100 µM | activity (SKOV-3 cells; SKOV-3, incubation time not given): no action

[C-]#[O+].[C-]#[O+].[C-]#[O+].[Re][O]c1cccc2cccnc12.c1c[nH]cn1 [complex 1, [Re(CO)3(Q)Him]]
MBC (E. coli ATCC25922; E. coli ATCC25922, >99.99% reduction of growth): 256/256 mg L^−1 | MIC (E. coli ATCC25922; E. coli ATCC25922, MH II broth, 35 °C, 24 h): 256/256 mg L^−1 | MBC (S. aureus ATCC29213; S. aureus ATCC29213, >99.99% reduction of growth): > 512 µg/mL | MIC (S. aureus ATCC29213; S. aureus ATCC29213, MH II broth, 35 °C, 24 h): 256 µg/mL | IC50 (MCF-10A cells; [9]): 39 ± 1 µM | IC50 (MCF-10A cells; [10]): 24 ± 1 µM | MBC (P. aeruginosa ATCC27853; P. aeruginosa ATCC27853, >99.99% reduction of growth): > 512 µg/mL | MIC (P. aeruginosa ATCC27853; P. aeruginosa ATCC27853, MH II broth, 35 °C, 24 h): 128 µg/mL | MBC (E. faecalis ATCC29212; E. faecalis ATCC29212, >99.99% reduction of growth): > 512 µg/mL | MIC (E. faecalis ATCC29212; E. faecalis ATCC29212, MH II broth, 35 °C, 24 h): 64 µg/mL | IC50 (HL-60 cells; [11]): 4.3 ± 0.2 µM | IC50 (HL-60 cells; HL-60, 48 h, MTT, read-out: IC50 ± SD): 4 ± 1 µM | IC50 (PC-3 cells; PC-3, 24 h, MTT): 28 ± 6 µM | IC50 (PC-3 cells; PC-3, 48 h, MTT): 27 ± 4 µM | IC50 (SKOV-3 cells; SKOV-3, 24 h, MTT): 36 ± 5 µM | IC50 (SKOV-3 cells; SKOV-3, 48 h, MTT): 39 ± 3 µM | IC50 (MCF-7 cells; MCF-7, 24 h, MTT): 34 ± 4 µM | IC50 (MCF-7 cells; MCF-7, 48 h, MTT): 30 ± 7 µM
